Measured values: paper PMC9585585, “Discovery of Small-Molecule Allosteric Inhibitors of PfATC as Antimalarials” (Journal of the American Chemical Society, 2022)
pEC50, pIC50: −log10 of the molar value.

Experiments:
[1] = tested on: malarial parasite; design: method as in PMID 32129597; details: cited from earlier work
[2] = molecular target: PfATC (Plasmodium falciparum, UniProt A0A5K1K910); experiment: biochemical; details: in vitro activity assay, PfATC 50 nM, 2 mM CP, 1 mM aspartate; read-out: PfATC IC50
Chain of PfATC (A0A5K1K910 entry or part of it): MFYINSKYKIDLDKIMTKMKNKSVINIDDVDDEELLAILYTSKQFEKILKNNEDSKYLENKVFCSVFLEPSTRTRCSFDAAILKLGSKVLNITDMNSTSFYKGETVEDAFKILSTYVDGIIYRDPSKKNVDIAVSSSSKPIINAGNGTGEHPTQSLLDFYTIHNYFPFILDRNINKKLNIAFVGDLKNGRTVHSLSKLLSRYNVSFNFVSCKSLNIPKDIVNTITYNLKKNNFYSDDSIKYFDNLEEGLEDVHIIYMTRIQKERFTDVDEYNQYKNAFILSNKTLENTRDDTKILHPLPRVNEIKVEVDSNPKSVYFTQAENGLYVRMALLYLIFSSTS
Protocol: Following washing with Lysis buffer
Excess imidazole was removed and the His-tag was cleaved
400Then, the sample was loaded onto a 5 ml HiTrap SP HP column (GE Healthcare, USA) and
410PfATC activity assay. Enzymatic reactions were performed in a total volume of 150 µL in 50 mM
Small-molecule dose-response curves were
The reactions were initiated by adding CP and quenched after 10 min with
After plates were sealed with transparent sealing
(§1) 420tape to prevent evaporation and incubated overnight in the dark place at room temperature. After
Analyses were performed using
The enzymatic assay was performed as described herein above for
Briefly, the reaction was carried out at room
The reaction was initiated by
Then the plate was covered by sealing
(§2) 430tape and kept in dark place at room temperature and then heated to 95 °C for 15min in dark and kept

[3] = molecular target: T1, HsATC (Homo sapiens, UniProt P27708); experiment: HsATC activity assay; type: biochemical; details: in vitro activity assay, 10 mM L-aspartate, 5 mM carbamoyl phosphate; read-out: HsATC IC50
T1 construct: ATCase domain of CAD; made in house; host or cells: E. coli BL21 star
T1 sequence (P27708 1918-2225 limits assumed): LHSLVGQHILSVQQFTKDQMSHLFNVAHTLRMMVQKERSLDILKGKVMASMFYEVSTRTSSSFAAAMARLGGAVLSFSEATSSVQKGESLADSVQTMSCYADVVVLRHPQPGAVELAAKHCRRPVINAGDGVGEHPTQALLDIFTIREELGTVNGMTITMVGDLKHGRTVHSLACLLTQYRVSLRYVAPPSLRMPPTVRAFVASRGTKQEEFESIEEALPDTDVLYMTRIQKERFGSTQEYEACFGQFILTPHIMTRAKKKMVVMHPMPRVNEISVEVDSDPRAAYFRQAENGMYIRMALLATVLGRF
Protocol: 417100μL of stop mix (two volumes of Antipyrine (26.5 mM 2,3-Dimethyl-1-phenyl-3-pyrazolin-5-
418one in 50% (v/v) sulfuric acid) and one volume of 2,3-Butanedione monoxime (80 mM 2,3-
419Butanedione monoxime in 5% (v/v) acetic acid). After plates were sealed with transparent sealing
as §1
421incubation, the plates were heated at 95 °C for 15 min in dark place, and kept for 30 min before
422measuring at 466 nm suing a Synergy H1 Hybrid Reader (BioTek). Analyses were performed using
423Microsoft Excel and Graph Pad Prism.
424HsATC activity assay. The enzymatic assay was performed as described herein above for
425enzymatic assay of PfATC with minor modifications. Briefly, the reaction was carried out at room
426temperature in a total volume of 150 μl of 10 mM L-aspartate and 5 mM carbamoyl phosphate
427saturated substrate solution in 50 mM Tris-Acetate buffer pH 8.3. hsATC was pre-incubated with
428inhibitor and L-Asp for 10 min at room temperature on a shaker. The reaction was initiated by
429adding CP and stopped after 5 min with […] color mix. Then the plate was covered by sealing
as §2
431the plate in the dark for another 30 min before measuring the absorbance at 466 nm suing a Synergy
432H1 Hybrid Reader (BioTek). […]

[4] = tested on: P. falciparum 3D7; experiment: Growth-inhibition assay of P. falciparum (SYBR Green I); type: cell-based, Plasmodium falciparum; details: P. falciparum 3D7, 96 h; read-out: EC50 against blood stage 3D7 cultures
Protocol: 488Cell culture and growth-inhibition assay of P. falciparum. P. falciparum 3D7 parasites
489(Wellcome Trust Dundee) were maintained in continuous culture at 37 °C and an atmosphere
490consisting of 90% N 2, 5% O2, and 5% CO2 as described previously 30 with modifications.31
491Parasites were maintained in 25 mM 4-(2-hydroxyethyl)-1-piperazineethanesulfonic acid (HEPES)
492and 11.9 mM sodium bicarbonate buffered RPMI 1640 medium supplemented with D-glucose
493(11 mM), hypoxanthine, AlbuMAX-I (0.5% w/v), and 10 µg/mL gentamicin. 0+ blood was
494provided by “Hospital Novo Atibaia” (Brazil) in agreement with the ethics committee at ICB-USP.
495Compounds were tested for their inhibitory effect against P. falciparum 3D7 conducting SYBR
496Green I (Invitrogen) drug assays as reported. 32, 33 Briefly, two-fold serial dilutions of compounds
497were prepared in 96-well plates starting from 100 and 20 µM in technical triplicate and incubated
498for 96 h under normal growth conditions using an initial parasitemia of 0.5% and a hematocrit of
4992% in a volume of 100 µL per well. Parasite proliferation was measured by quantifying DNA via
500SYBR Green I emitted fluorescence in the wells after addition of 100 µL lysis buffer supplemented
501with SYBR Green I (0.02% v/v) and incubation for 1 h at room temperature in the dark.
502Fluorescence was quantified using a CLARIOstar plate reader (BMG Labtech, Germany) at
503excitation and emission wavelength bands of 485 (± 9) and 530 (± 12) nm, respectively. Focal and
504gain adjustment was performed using the negative controls (highest expected fluorescence signal).
505Data was acquired via the CLARIOstar (V5.20) and MARS software, manually normalized, and
506plotted using the nonlinear regression curve fit implemented in GraphPad Prism as described below
507in more detail. Non-treated parasites, highest solvent concentration on parasites, and highest drug
508concentration in medium were used as controls for maximal growth, solvent control, and native
509drug fluorescence, respectively.
511Nonlinear regression fit and analysis of dose-response drug assays. Nonlinear regression as
512implemented in GraphPad Prism 8.4.3 (log(inhibitor) vs. response – Variable slope (four
513parameters)) was used to fit the measured data to interpolate the IC 50 value from the curve. No
514specific model was applied. Data was pre-processed by min-max-scaling according to the
517where y is the fluorescence signal in each well, y minimum the background fluorescence, and ymaximum
518the highest measured fluorescence signal in the untreated wells. Drug concentrations (in µM) were
519transformed to the log(10)of the values. Means of each independent experiment were plotted as
520individual values, and the SD of the mean from the means shown as error bars. The test for
521homoscedasticity was performed to confirm if no weighting of values was appropriate.

| Structure (SMILES) | inhibitory effects in ex vivo experiments [1] | pIC50 [2] | pIC50 [3] | pEC50 [4] |
| --- | --- | --- | --- | --- |
| O=C(O)C[C@H](NC(=O)CP(=O)(O)O)C(=O)O [PALA, N-(phosphonoacetyl)-L-aspartate] | no inhibitory effects | – | – | – |
| CC(C)(C)OC(=O)Nc1sc(-c2ccccc2)cc1C(=O)NCCc1ccc(C(F)(F)F)cc1 [BDA-21] | – | 6.26 | 6.21 | 5.62 |
| CC(C)(C)OC(=O)Nc1sc(-c2ccccc2)cc1C(=O)NCCc1ccc(Br)cc1 [BDA-22] | – | 6.33 | 6.24 | 5.54 |
| CC(C)(C)OC(=O)Nc1sc(-c2ccccc2)cc1C(=O)NCC(O)c1ccccc1 (stereo not shown) [BDA-16] | – | 5.22 | 6.06 | 5.71 |
| CC(C)(C)OC(=O)Nc1sc(-c2cccc(N)c2)cc1C(=O)NCCc1ccc(O)cc1 [BDA-51] | – | 5.91 | 6.65 | – |
| COc1ccccc1CCNC(=O)c1cc(-c2ccccc2)sc1NC(=O)OC(C)(C)C [BDA-18] | – | 5.88 | 6.59 | 5.73 |
| CC(C)CCNc1sc(-c2ccccc2)cc1C(=O)NCCc1ccccc1 [BDA-12] | – | 6.80 | 6.18 | – |
| CC(C)(C)OC(=O)Nc1sc(-c2ccccc2)cc1C(=O)Nc1ccc(N2CCOCC2)c(F)c1 [BDA-37] | – | 5.97 | 6.46 | – |
| COC(=O)c1cc(-c2ccccc2)sc1NC(=O)OC(C)(C)C [BDA-02] | – | 5.83 | 5.82 | – |
| CC(C)(C)OC(=O)Nc1sc(-c2ccccc2)cc1C(=O)NCCCc1ccccc1 [BDA-26] | – | 6.24 | 6.26 | – |
| CC(C)c1cc(C(=O)NCCc2ccc(O)cc2)c(N)s1 [BDA-61] | – | 5.70 | 6.06 | – |
| CC(C)(C)OC(=O)Nc1sc(-c2ccccc2)cc1C(=O)NCCc1ccc(F)cc1 [BDA-28] | – | 5.79 | 6.41 | – |
| CC(C)(C)OC(=O)Nc1sc(-c2ccccc2)cc1C(=O)NCCc1ccc(S(N)(=O)=O)cc1 [BDA-06] | – | 5.73 | 6.54 | – |
| CC(C)(C)OC(=O)Nc1sc2c(c1C(=O)NCCc1ccc(O)cc1)CCC(c1ccccc1)C2 (stereo not shown) [BDA-42] | – | 4.91 | 5.62 | – |
| CC(C)CCNc1sc(-c2ccccc2)cc1C(=O)NCCc1ccc(O)cc1 [BDA-19] | – | 5.39 | 6.17 | 5.63 |
